Reference: a melting point compilation (Tetko et al.; mined from patent text by program, amines drawn as free bases though some values may be those of a salt)

| melting point [°C] | Compound |
| --- | --- |
| 72 to 74 | CCOC(=O)c1cc(C#N)c(C)nc1N1CCCCC1 |
| 126 to 130 | Cc1ccc(-c2nnc(Cl)nc2-c2ccc(C)cc2)cc1 |
| 64 to 65 | C=CCc1cc(C(C)=O)c(O)cc1OCCCCCC(=O)OC |
| 60 to 62 | Cc1nc(-c2cc(C)c(OCCCc3cnc(C)s3)c(C)c2)no1 |
| 131 to 132 | CCOc1c(OC)cc(C)c(C(=O)c2c(OC)ccc(Cl)c2C)c1OC |
| 232 to 237 | C(=C(c1ccccc1)c1ccccc1)c1ccc2c(c1)Sc1cc(C=C(c3ccccc3)c3ccccc3)ccc1N2c1ccccc1 |
| 110 | CCOc1c(CCl)c(CCl)c(OCC)c2ccccc12 |
| 190 to 192 | O=C1Cc2cccc(Nc3ccc(Cl)cc3)c2N1 |
| 84 to 85 | O=Cc1cc(Br)c(OCCBr)c(Br)c1 |
| 101 to 102 | O=[N+]([O-])c1cncn1CCO |
| 125 to 126 | C=CCn1c(C)c(C)c2cnnc(OCc3ccc(F)cc3)c21 |
| 200 to 202 | COCCc1sc2ncnc(N)c2c1-c1ccc(NC(=O)c2ccccc2)cc1 |
| 124 to 125 | Cn1ccnc1S(=O)(=O)CC(=O)C12CC3CC(CC(C3)C1)C2 |
| 185 to 187 | COc1ccc(S(=O)(=O)Nc2ccccc2Nc2ccncc2)cc1 |
| 280 to 282 | CCCCC(C)c1ccc(C=Cc2cc3cc4ccccc4cc3s2)cc1 (stereo not drawn) |
| 213 to 214 | COc1cc(OC)c(C23CC4CC(CC(C4)C2)C3)cc1C(=O)O |
| 142 to 144 | COc1ccc(CNc2cc(OCc3ccccn3)ccc2C(=O)c2cc(OC)c(OC)c(OC)c2)cc1Cl |
| 208 to 210 | O=C1CCC(N2Cc3cc(CNC(=O)N4CCOCC4)ccc3C2=O)C(=O)N1 (stereo not drawn) |
| 125 to 127 | C=CCc1ccc2oc(C=CC(=O)OCC)c(C)c2c1O |
| 149 to 151 | O=C(CCc1ccccc1)Nc1ccc(Br)cc1 |
| 109 | CC1=CC(c2cccc(Cl)c2)C(c2cccs2)=NN1 (stereo not drawn) |
| 156 to 160 | CC(C)CNC(=O)C=CC=Cc1ccc2c(c1)OCO2 |
| 277 to 279 | COc1cc(OC)c2c(=O)[nH]c(-c3ccc(N(CCO)CCO)cc3)nc2n1 |
| 170 to 171 | CC(/C=C/CN1CCc2cc3c(cc21)C(C)(C)CCC3(C)C)=C\C(=O)O |

| melting point [°C] | Compound |
| --- | --- |
| 120 to 121 | Cc1csc2ncc(C(O)CCCCc3ccccc3)n12 (stereo not drawn) |
| 138 to 148 | O=C1C(N2CCOCC2)=CCCN1c1ccc(I)cc1 |
| 113 to 114 | Cc1cc(C)c2nsnc2c1N |
| 168 | CC#CCOc1ccc(S(=O)C(C(=O)NO)c2ccccc2OC)cc1 (stereo not drawn) |
| 134 to 136 | CCOc1cc(-n2ccnc2)ccc1C#N |
| 102 to 103 | Cc1ccc(C[C@@H](C(=O)O)[C@@H](O)c2ccc(F)cc2)cc1OC(F)(F)C(F)F (racemic) |
| 40 to 48 | CC12CCC(CC1=O)C(C)(C)O2 (stereo not drawn) |
| 214 to 215 | Cc1c(OC(F)F)ccnc1CSc1nc2ccc(O)cc2[nH]1 |
| 170 to 171 | CCC(C)c1ccccc1Sc1c(O)cc(-c2ccccc2)oc1=O (stereo not drawn) |
| 161 to 163 | Nc1cccc(-c2ccc(CCN3CC4C(C3)C4NC(=O)Cc3ccc(F)cc3)cc2)n1 (stereo not drawn) |
| 132 to 137 | NCCNC(=O)CNC(=O)Cc1ccccc1 |
| 112 to 113 | C#CCOc1cc(-c2ncnc(C(F)(F)F)c2Cl)c(F)cc1Cl |
| 275 to 276 | O=C(O)c1ccc(-c2nc(-c3ccccc3)co2)cc1 |
| 122 to 124 | Oc1cc2cc(-c3ccccc3)sc2c(Cl)c1Cl |
| 205 to 206 | Cn1cnc(COc2nn3c(-c4ccccc4)nnc3cc2N2CCOCC2)n1 |
| 146 | COc1cc2c(cc1OC)CN(CCCc1ccc(NC(=O)c3cc4ccccc4cn3)cc1)CC2 |
| 216 to 220 | CS(=O)(=O)Nc1cccc(Nc2nc(NCc3ncc[nH]3)c3nc[nH]c3n2)c1 |
| 263 to 266 | CN1C(=O)CN(C(=O)N2CC(=O)N(C)c3ccc(Cl)cc3C2c2ccccc2)C(c2ccccc2)c2cc(Cl)ccc21 (stereo not drawn) |
| 219 | CSc1ccc(-c2n[nH]c(=S)cc2-c2ccc(F)cc2)cc1 |
| 212 to 218 | O=C(O)c1ccc(Oc2ccc(Oc3ccc(C(=O)O)c(C(=O)O)c3)c(P(=O)(c3ccccc3)c3ccccc3)c2)cc1C(=O)O |
| 185 to 187 | CN(C)c1ccc([N+](=O)[O-])c(C(=O)O)c1 |
| 153 to 156 | CC(SCc1nccc2ccccc12)C(=O)O (stereo not drawn) |
| 96 to 97 | Cn1cc(Br)cc(Nc2ccn(CCO[Si](C)(C)C(C)(C)C)n2)c1=O |
| 258 | Cc1cc(-c2cnn3c(C(F)(F)F)cc(-c4ccc(C)c(C(F)(F)F)c4)nc23)cc(C)n1 |

| melting point [°C] | Compound |
| --- | --- |
| 402 | c1ccc(-n2c(-c3ccc(-c4ccc(-c5nc6c7ccccc7c7ccccc7c6n5-c5ccccc5)cc4)cc3)nc3c4ccccc4c4ccccc4c32)cc1 |
| 138 to 140 | O=c1cc(Cl)nc2sc(SCc3ccccc3)nn12 |
| 200 to 201 | CNC(=O)CCC12CC(c3ccccc31)c1ccccc12 |
| 212 to 213 | CC(=O)NCC1CN=C(c2cc3cccc(N(C)S(=O)(=O)c4cccs4)c3[nH]2)S1 (stereo not drawn) |
| 240 | CCOC(=O)c1nc2c(=O)[nH]c3cc(C(F)(F)F)ccc3n2c1Cn1cnc(Cl)c1Cl |
| 154 to 155 | O=C1c2ccccc2CN1c1cccc(CCN2CCN(c3nsc4ccccc34)CC2)c1 |
| 199 to 200 | CCOCc1nc2c(N)nc3ccccc3c2n1CCCc1cc(-c2cccnc2)no1 |
| 94 to 96 | Oc1cccc(C(O)(c2nccs2)C(F)(F)F)c1 (stereo not drawn) |
| 197 to 199 | CCOC(=O)c1sc(N2CCNC2=O)nc1C |
| 168 to 170 | C=CC(c1ccc(F)cc1)c1c(C)c(NC=O)c(C)c(C)c1O (stereo not drawn) |
| 62.5 to 63.5 | O=C=Nc1c(Cl)c(Cl)cc(Cl)c1Cl |
| 59 | CCCCOc1cc2c(cc1C)C(=O)CC2(C)C |
| 77 to 79 | CCN(c1nc(C)cc(C(=O)c2ccc3[nH]ccc3c2)n1)c1ccc(C(C)C)cc1Br |
| 241 to 242 | CCn1cc(C(=O)O)c(=O)c2cc(F)c(N3CCN(Cc4ccc([N+](=O)[O-])cc4)CC3)c(F)c21 |
| 147 to 149 | O=c1cc(N2CCOCC2)oc2ccc(Br)cc12 |
| 125 to 126 | CCc1cccc2c3c([nH]c12)C(CC)(CCOC)OCC3 (stereo not drawn) |
| 69 to 71 | CCOC(=O)CON(C)C(=S)Nc1ccc2c(c1)CCC2 |
| 50 | Cc1cc(-n2ccnc2)c2cccc(OCc3c(Cl)ccc(S(=O)(=O)N4CCC[C@H]4C(=O)N4CCOCC4)c3Cl)c2n1 |
| 164 to 166 | Cc1cc(C2=NNC(=O)Cc3cc4c(cc32)OCO4)ccc1N |
| 66 to 67 | C=CCOc1cc(C=O)ccc1O |
| 156 to 157 | Cc1ccc2c(c1)C(C(=O)Nc1c(Cl)cccc1Cl)c1ccccc1CO2 (stereo not drawn) |
| 142 to 143 | COc1ccc(CN2C(=O)C3(COc4cc(F)c(C#N)cc43)c3ccccc32)cc1 (stereo not drawn) |
| 216 to 218 | O=C1Nc2cccnc2N(C(=O)CCCl)c2ccccc21 |
| 138 to 140 | CC(C)n1nc(Cl)cc1O |

| melting point [°C] | Compound |
| --- | --- |
| 275 to 278 | O=S(=O)(O)CCc1cccnc1 |
| 41 to 44 | CCCCCCCCCCCCCCCCOCCSCCOC(=O)N(Cc1ccccn1)C(C)=O |
| 66.8 to 69.2 | CCCCCCCCCCC1(CCCCCCCCCC)c2cc(Br)ccc2-c2ccc(N(c3ccccc3)c3ccccc3)cc21 |
| 200 to 202 | CNC1CCN(c2c(F)c(N)c3c(=O)c(C(=O)O)cn(C4CC4)c3c2C)C1 (stereo not drawn) |
| 253 to 254 | Nc1ccccc1C(=O)Nc1nnn[nH]1 |
| 92 to 93 | Cc1nc(OCCCc2cc(OC(C)C)nn2Cc2ccc(Cl)cc2Cl)c(CC#N)s1 |
| 120 to 122 | COC(=O)n1c(Br)c(Br)c(C#N)c1Br |
| 148 to 149 | Fc1cccc(F)c1C1=NC(c2ccc(-c3ccc(C(F)(F)F)cc3)cc2)CO1 (stereo not drawn) |
| 204 to 206 | COc1ccc2[nH]cc(CC(=O)N3C[C@@H]4[C@H](C3)[C@@](O)(c3ccccc3OC)[C@H](O)CC4(c3ccccc3)c3ccccc3)c2c1 (racemic) |
| 104 to 106 | Nc1ccc(NCC(F)(F)F)c([N+](=O)[O-])c1 |
| 202 to 206 | COc1cn(-c2ccc(-n3cccn3)cc2F)nc(-c2ccnn2-c2ccccc2F)c1=O |
| 154 to 155 | FC(F)(F)c1ccc(-c2ncc(-c3cccs3)s2)cc1 |
| 163 to 165 | CN(C)C(=O)CCNC(=O)c1ccc(-c2ccc3nnn(Cc4ccc5ncccc5c4)c3n2)cc1F |
| 180 | O=C(O)CCc1cccc(-c2nc(=O)c3ccccc3s2)c1 |
| 179 | O=C(CN1CCOCC1)Nc1cccc2nc(N[C@@H]3CCc4ccccc43)ccc12 |
| 192 to 194 | O=C(NC(=O)c1c(F)cccc1F)Nc1cccc(S(=O)(=O)C(F)(F)C(F)Cl)c1 (stereo not drawn) |
| 88 to 90 | CCCc1cccnc1N(C)C1CCN(C(=O)c2ccc[nH]2)CC1 |
| 110 to 118 | CC(C)(C)OC(=O)N1C[C@@H](Sc2ccccc2)C[C@H]1C(=O)O |
| 84 to 86 | CC1(C)CN(CC2COc3ccccc3C2)c2nc(-c3ccncn3)cc(=O)n2C1 (racemic) |
| 157 to 160 | CCOC(=O)c1cn(-c2ccc(F)cc2F)c2nc(OS(=O)(=O)c3ccccc3[N+](=O)[O-])c(F)cc2c1=O |
| 144 to 146 | COCOc1cccc(COc2cc3c(cc2-c2cc(C=CC(=O)O)ccc2OC)C(C)(C)CCC3(C)C)c1 |
| 208 to 211 | CC(C)(O)Cn1c(Oc2ccc(-n3c4ncccc4n4ccnc34)cc2)nc2ccccc21 |
| 196 to 197 | CCCCOc1c(CN2C(=O)c3ccccc3C2=O)n(CCC(=O)O)c(=O)c2cc(Cl)c(Cl)cc12 |
| 91 to 92 | CCOC(=O)CCc1cc(O)nn1CC |

| Compound | melting point [°C] |
| --- | --- |
| CN1Cc2c(C(N)=O)ncn2-c2cccc(Br)c2C1=O | 278 to 279 |
| CC1Nc2ccc3c(c2N1C)OC(CN1CC=C(c2c[nH]c4ccccc24)CC1)CO3 (stereo not drawn) | 186 to 188 |
